Reference: the CheMixHub viscosity set
Where “and” joins values, the source holds several entries; their conditions need not be identical. Equal entries are not always repeated. ± gives the uncertainty stated by the source.

Test: xn = mol fraction of the nth substance listed

CC(O)C(=O)O (stereo not given) + C[N+](C)(C)CCO.[Cl-]
viscosity
Settings | 100 kPa | 101 kPa
293.15 K, x2 = 0.1 | 92.67 ± 4.1 mPa·s | –
293.15 K, x2 = 0.1667 | 107.5 ± 4.7 mPa·s | –
293.15 K, x2 = 0.3333 | 229.3 ± 11 mPa·s | –
293.15 K, x2 = 0.5 | 527 ± 28 mPa·s | –
300.15 K, x2 = 0.1 | 52.02 ± 2.2 mPa·s | –
300.15 K, x2 = 0.1667 | 59.99 ± 2.5 mPa·s | –
300.15 K, x2 = 0.3333 | 127 ± 5.5 mPa·s | –
300.15 K, x2 = 0.5 | 276.9 ± 13 mPa·s | –
303.15 K, x2 = 0.5 | – | 1245 ± 410 mPa·s
308.15 K, x2 = 0.5 | – | 877.3 ± 250 mPa·s
313.15 K, x1 = 0.57 | – | 267.5 ± 10 mPa·s
313.15 K, x1 = 0.9 | – | 103.5 ± 2.2 mPa·s
313.15 K, x1 = 0.94 | – | 103.5 ± 2.2 mPa·s
313.15 K, x2 = 0.1 | 31.27 ± 1.3 mPa·s | –
313.15 K, x2 = 0.1667 | 35.62 ± 1.5 mPa·s | –
313.15 K, x2 = 0.3333 | 79.44 ± 3.3 mPa·s | –
313.15 K, x2 = 0.5 | 157.6 ± 6.9 mPa·s | 626.3 ± 160 mPa·s
318.15 K, x2 = 0.5 | – | 452.1 ± 100 mPa·s
323.15 K, x2 = 0.1 | 20.21 ± 0.84 mPa·s and 20.21 ± 0.83 mPa·s | –
323.15 K, x2 = 0.1667 | 23.07 ± 0.95 mPa·s | –
323.15 K, x2 = 0.3333 | 51 ± 2 mPa·s | –
323.15 K, x2 = 0.5 | 97.82 ± 4.1 mPa·s | 335.1 ± 65 mPa·s

Clc1cccc2ccccc12 + C=Cc1ccccc1
viscosity [mPa·s], 101.33 kPa
Settings | x2 = 0.1076 | x2 = 0.2005 | x2 = 0.301 | x2 = 0.4032 | x2 = 0.5003 | x2 = 0.6015 | x2 = 0.684 | x2 = 0.7992 | x2 = 0.9033
298.15 K | 2.356 ± 0.054 | 2.07 ± 0.048 | 1.778 ± 0.041 | 1.549 ± 0.036 | 1.379 ± 0.033 | 1.216 ± 0.029 | 1.108 ± 0.027 | 0.9675 ± 0.024 | 0.8331 ± 0.021
303.15 K | 2.103 ± 0.048 | 1.864 ± 0.043 | 1.617 ± 0.038 | 1.412 ± 0.034 | 1.259 ± 0.03 | 1.115 ± 0.027 | 1.013 ± 0.025 | 0.91 ± 0.023 | 0.8013 ± 0.021
308.15 K | 1.884 ± 0.044 | 1.677 ± 0.039 | 1.47 ± 0.035 | 1.283 ± 0.031 | 1.152 ± 0.028 | 1.036 ± 0.025 | 0.9455 ± 0.024 | 0.8446 ± 0.021 | 0.7413 ± 0.019

Clc1ccccc1 + Cc1ccc(C)cc1
101 kPa
Settings | viscosity [mPa·s]
293.15 K, x1 = 0.1144 | 0.598 ± 0.011
293.15 K, x1 = 0.2316 | 0.621 ± 0.011
293.15 K, x1 = 0.337 | 0.641 ± 0.011
293.15 K, x1 = 0.4432 | 0.657 ± 0.012
293.15 K, x1 = 0.5417 | 0.673 ± 0.012
293.15 K, x1 = 0.6319 | 0.687 ± 0.012
293.15 K, x1 = 0.7398 | 0.706 ± 0.012
293.15 K, x1 = 0.8385 | 0.722 ± 0.013
293.15 K, x1 = 0.9124 | 0.734 ± 0.013
298.15 K, x1 = 0.1363 | 0.57 ± 0.01
298.15 K, x1 = 0.2224 | 0.585 ± 0.011
298.15 K, x1 = 0.3453 | 0.608 ± 0.011
298.15 K, x1 = 0.4555 | 0.625 ± 0.011
298.15 K, x1 = 0.5832 | 0.645 ± 0.012
298.15 K, x1 = 0.6956 | 0.667 ± 0.012
298.15 K, x1 = 0.7881 | 0.679 ± 0.012
298.15 K, x1 = 0.9065 | 0.695 ± 0.012
303.15 K, x1 = 0.1144 | 0.534 ± 0.01
303.15 K, x1 = 0.2318 | 0.55 ± 0.01
303.15 K, x1 = 0.3419 | 0.572 ± 0.011
303.15 K, x1 = 0.4624 | 0.587 ± 0.011
303.15 K, x1 = 0.5653 | 0.602 ± 0.011
303.15 K, x1 = 0.6803 | 0.615 ± 0.011
303.15 K, x1 = 0.7947 | 0.635 ± 0.011
303.15 K, x1 = 0.9082 | 0.649 ± 0.012

CC(O)C(=O)O (stereo not given) + CC(C)[C@@H]1CC[C@@H](C)C[C@H]1O
100 kPa, x2 = 0.67
Settings | viscosity [mPa·s]
293.15 K | 370.9 ± 21
298.15 K | 218.9 ± 11
303.15 K | 134.3 ± 6.8
308.15 K | 86.53 ± 4.3
313.15 K | 58.84 ± 2.9
318.15 K | 40.71 ± 2
323.15 K | 29.47 ± 1.4

Clc1cccc2ccccc12 + c1ccccc1
viscosity [mPa·s], 101.33 kPa
Settings | x1 = 0.0989 | x1 = 0.2022 | x1 = 0.3275 | x1 = 0.3981 | x1 = 0.5035 | x1 = 0.5982 | x1 = 0.7022 | x1 = 0.7973 | x1 = 0.8976
298.15 K | 0.655 ± 0.018 | 0.792 ± 0.022 | 0.96 ± 0.028 | 1.078 ± 0.033 | 1.294 ± 0.041 | 1.475 ± 0.05 | 1.731 ± 0.063 | 2.022 ± 0.079 | 2.38 ± 0.099
303.15 K | 0.609 ± 0.017 | 0.727 ± 0.02 | 0.903 ± 0.026 | 0.994 ± 0.03 | 1.188 ± 0.038 | 1.349 ± 0.046 | 1.586 ± 0.058 | 1.833 ± 0.072 | 2.126 ± 0.089
308.15 K | 0.571 ± 0.016 | 0.679 ± 0.019 | 0.843 ± 0.025 | 0.922 ± 0.028 | 1.098 ± 0.036 | 1.242 ± 0.043 | 1.452 ± 0.053 | 1.669 ± 0.065 | 1.928 ± 0.081

Clc1cccc2ccccc12 + COc1ccccc1
viscosity [mPa·s], 101.33 kPa
Settings | x1 = 0.0985 | x1 = 0.1969 | x1 = 0.2977 | x1 = 0.3974 | x1 = 0.4997 | x1 = 0.5959 | x1 = 0.6962 | x1 = 0.7827 | x1 = 0.8985
298.15 K | 1.025 ± 0.026 | 1.116 ± 0.03 | 1.262 ± 0.035 | 1.409 ± 0.042 | 1.568 ± 0.05 | 1.72 ± 0.058 | 1.896 ± 0.069 | 2.096 ± 0.081 | 2.425 ± 0.1
303.15 K | 0.946 ± 0.025 | 1.045 ± 0.028 | 1.159 ± 0.033 | 1.291 ± 0.038 | 1.43 ± 0.045 | 1.566 ± 0.053 | 1.724 ± 0.063 | 1.891 ± 0.073 | 2.18 ± 0.091
308.15 K | 0.878 ± 0.023 | 0.966 ± 0.026 | 1.069 ± 0.03 | 1.185 ± 0.035 | 1.312 ± 0.042 | 1.431 ± 0.049 | 1.57 ± 0.057 | 1.717 ± 0.067 | 1.973 ± 0.083

Clc1ccccc1 + CN(C)C=O
viscosity [mPa·s], 101.33 kPa
Settings | x2 = 0.1076 | x2 = 0.2986 | x2 = 0.397 | x2 = 0.5024 | x2 = 0.6054 | x2 = 0.7013 | x2 = 0.7925 | x2 = 0.8973
303.15 K | 0.731 ± 0.006 | 0.76 ± 0.006 | 0.767 ± 0.006 | – | 0.773 ± 0.006 | 0.774 ± 0.006 | 0.771 ± 0.006 | 0.754 ± 0.006
313.15 K | – | – | 0.69 ± 0.005 | 0.694 ± 0.005 | 0.695 ± 0.005 | 0.694 ± 0.005 | 0.688 ± 0.005 | –

Clc1ccccc1 + CN1CCCC1=O
viscosity [mPa·s], 101 kPa
Settings | x2 = 0.1055 | x2 = 0.2097 | x2 = 0.3127 | x2 = 0.4144 | x2 = 0.5149 | x2 = 0.6142 | x2 = 0.7124 | x2 = 0.8094 | x2 = 0.9052
303.15 K | 0.8395 ± 0.021 | 0.9497 ± 0.021 | 1.057 ± 0.022 | 1.153 ± 0.022 | 1.242 ± 0.022 | 1.322 ± 0.022 | 1.39 ± 0.023 | 1.455 ± 0.023 | 1.508 ± 0.023
308.15 K | 0.7814 ± 0.021 | 0.8809 ± 0.021 | 0.9724 ± 0.021 | 1.059 ± 0.022 | 1.14 ± 0.022 | 1.207 ± 0.022 | 1.267 ± 0.022 | 1.323 ± 0.022 | 1.366 ± 0.022
313.15 K | 0.737 ± 0.021 | 0.8284 ± 0.021 | 0.9144 ± 0.021 | 0.9933 ± 0.021 | 1.067 ± 0.022 | 1.132 ± 0.022 | 1.187 ± 0.022 | 1.24 ± 0.022 | 1.282 ± 0.022
318.15 K | 0.6786 ± 0.021 | 0.7611 ± 0.021 | 0.8372 ± 0.021 | 0.9111 ± 0.021 | 0.9802 ± 0.021 | 1.04 ± 0.022 | 1.093 ± 0.022 | 1.137 ± 0.022 | 1.175 ± 0.022
